Experimental data published in article PMC9259647 (Scientific Reports, 2022).
Like-named read-outs stand apart in the source and are kept apart here.

What was measured:
HXYN2 [1] = molecular target: T1, HXYN2 (Humicola insolens, UniProt P55334); test: Effect of phenolic compounds on HXYN2 activity (DNS xylanase assay); assay type: biochemical, Humicola grisea var. thermoidea; conditions: for activating effect on HXYN2 activity: after 0 and 24 h of incubation
T1 construct: made in house; host or cells: Pichia pastoris GS115 (vector pHIL-D2), purified from culture supernatant

HXYN2 [2] = molecular target: T1, HXYN2; test: Isothermal titration calorimetry of HXYN2 with FA; assay type: binding, Humicola grisea var. thermoidea
Protocol: An initial spacing setting of 500 s and an initial injection of 2 µL were employed. The following 12 injections of 5 µL were performed with an interval spacing of 600 s. The final 16 injections comprised 10 µL, with an interval spacing of 600 s.
The heat released after each injection was calculated from the raw data by integration of the peaks after subtraction of the baseline. The binding isotherms were fitted to different models using the software ORIGIN v7 (OriginLab, Northampton, MA, USA) provided by MicroCal. The best fit was determined using only two parameters, namely the binding constant (K) and enthalpy (H) on each site, following selction of the total number of sites. […] Changes in Gibbs free energy (ΔG) were calculated by Eq. (3):3 ΔG=-RTlnKa=ΔH-TΔS

HXYN2 [3] = molecular target: T1, HXYN2; test: Fluorescence quenching of HXYN2 by FA; assay type: binding, Humicola grisea var. thermoidea; conditions: range, acidic to basic pH
Protocol: HXYN2 in complex with FA was investigated by fluorescence quenching as a function of pH. Trp and Trp-Tyr emission measurements were performed at 25 °C, in triplicate, after excitation at 295 nm and 275 nm, respectively. Protein fluorescence emission was recorded in the range of 300 to 450 nm. A path length quartz cuvette of 1 cm and excitation and emission slit width of 5 nm were employed. Data intervals of 1 nm, gain medium, a response time of 2 s, and a scanning speed of 50 nm/min were used with two averaged spectra accumulations. Fluorescence quenching of 0.43 µM HXYN2 with 0 to 23.68 µM FA in 95% ethanol and 0.05 M of sodium acetate buffer at pH 4.0 and 0.05 M of Tris–HCl at pH 7.0 and pH 9.0 was performed using a Jasco ATS-443 Automatic titration (Jasco Analytical Instrument, Tokyo, Japan). The fluorescence intensity background and dilution were corrected. The Stern–Volmer linear regression (Eq. 4) of the relative […] of fluorescence intensity at 334 nm (F/F0) versus FA concentration was used to describe the fluorescence quenching of Trp accessible to the quencher[52]:4 F0/F=1+Kq∗τ0Q=1+KSVQ where F and F0 are the fluorescence intensities at 334 nm, in the presence and absence of FA, respectively, Q is the concentration of the quencher, and Ksv is the Stern–Volmer constant. […]

HXYN2 [4] = test system: HXYN2
HXYN2 [5] = test: CD thermal unfolding of HXYN2 in the presence of FA; set-up: species or system Humicola grisea var. thermoidea; conditions: pH 6.0, FA 60 µM; 63.5 °C without FA
Protocol: Thermostability assays of HXYN2 were performed at pH 4.0, 6.0, 7.0 and 9.0 at 218 nm, corresponding to the structured region of β-sheet, with temperature ranging from 25 to 95 °C and data collection of 0.2 °C/min. In addition, the CD spectra were recorded at a step size of 0.2 nm at intervals of 10 °C using the same parameters described above. Thermal denaturation curves were plotted considering the molar ellipticity values (θ) versus temperature. The unfolded status of the protein (Fu) was calculated by Eq. (6):6 Fu=yN-y/yN-yU where, yN and yU represent the values of y (into molar ellipticity) characteristic of the folded and unfolded states, respectively. The normalized unfolding curves were adjusted using the Boltzmann equation and the Origin 8.1 software (OriginLab Corporation, Northampton, MA, USA) from which the melting temperature (Tm) was estimated.
The effect of FA on the secondary structure content of HXYN2 was also investigated by CD. Assays were performed with protein at concentration of 0.15 mg/mL in 5 mM Bis–Tris pH 6.0 and FA at concentration of 60 µM. A quartz cuvette of 0.05 cm path length was used to record the Far-UV CD spectra in the range from 260 to 190 nm at 25 °C. Thermostability assays of HXYN2 in the presence of FA at pH 6.0 were also performed, using the same parameters described above.

[6] = test system: fungal cellulases and β-glucosidase; set-up: method as in PMID 22112771; conditions: cited from earlier work
[7] = test system: GH11 xylanase from Aspergillus tamarii; conditions: birchwood xylan as a substrate; cited from earlier work
[8] = test system: GH10 xylanase from Penicillium chrysogenum; set-up: method as in PMID 30654038; conditions: oat spelt xylan as a substrate; cited from earlier work

T1 sequence (P55334 20-227): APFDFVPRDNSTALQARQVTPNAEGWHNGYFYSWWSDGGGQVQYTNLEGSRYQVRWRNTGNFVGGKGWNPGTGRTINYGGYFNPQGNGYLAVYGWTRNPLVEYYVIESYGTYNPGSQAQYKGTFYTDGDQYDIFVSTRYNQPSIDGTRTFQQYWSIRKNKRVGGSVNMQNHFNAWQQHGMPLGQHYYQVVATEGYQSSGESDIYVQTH

In the case of O=C(O)c1ccc(O)cc1 [4-hydroxybenzoic acid], the “activating effect on HXYN2 activity” value (HXYN2 [1]; 1 mg/mL) is reported as 20–75%.

For COc1cc(/C=C/C(=O)O)ccc1O [FA, 3-(4-hydroxy-3-methoxy-phenyl-prop-2-enoic)], the Kd (HXYN2 [2]; Kd, binding sites 2 and 4) was ~2500 nM, the “K (binding constant)” value (HXYN2 [2]; binding site 1, pH 6.0, 298 °K) was 14.70 10^6 M^-1 and the binding constant (HXYN2 [2]; binding sites 2 and 4) was ~ 0.4 × 10^6 M^−1. The Kd (HXYN2 [2]; dissociation constant (Kd), range over four sites) was 68 to 2320 nM, the Gibbs free energy (HXYN2 [2]; range over four sites) was −5.5 to −10.0 kcal/mol and the “bimolecular quenching constant, Kq” value (HXYN2 [3]) was 3.2e+11 to 6.5e+11 M⁻¹ s⁻¹. The Vmax (HXYN2 [4]; FA 0.25 mg/mL) was 56.71 ± 1.11 µmol/min, the kcat (HXYN2 [4]; FA 0.25 mg/mL) was 2.363 s⁻¹ and the Vmax (HXYN2 [4]; FA 0.5 mg/mL) was 117.21 ± 1.26 µmol/min. It also gave a kcat (HXYN2 [4]; FA 0.5 mg/mL) of 4.8837 s⁻¹, a Vmax (HXYN2 [4]; FA 1 mg/mL) of 167.22 ± 8.12 µmol/min and a kcat (HXYN2 [4]; FA 1 mg/mL) of 6.9678 s⁻¹. The “Tm of HXYN2 in the presence of FA” value (HXYN2 [5]) was 54.1 °C, the “increase in enzymatic activity of HXYN2 in comparison to the control” value (HXYN2 [1]; 1 mg/mL, 0 and 24 h of incubation, beechwood xylan) was 60–75% and the activation at 1000 µg/mL (HXYN2 [1]; 24 h, read-out: activating effect on HXYN2, after 24 h of incubation) was ~75%. The activation at 1000 µg/mL (HXYN2 [1]; read-out: activating effect on HXYN2 activity, 1 mg/mL, after 0 and 24 h of incubation) was 20 to 75% and the activation at 1000 µg/mL (HXYN2 [1]; read-out: increase in enzymatic activity of HXYN2 in comparison to the control, 1 mg/mL, 0 and 24 h of incubation, beechwood xylan) was 75%.

With O=C(O)/C=C/c1ccc(O)cc1 [p-coumaric acid] the “activating effect on HXYN2 activity” value (HXYN2 [1]; 1 mg/mL) was 20–75%.

For COc1cc(C=O)cc(OC)c1O [syringaldehyde], the “activating effect on HXYN2 activity” value (HXYN2 [1]; 1 mg/mL) was 20–75%.

For COc1cc(C=O)ccc1O [vanillin], the “activating effect on HXYN2 activity” value (HXYN2 [1]; 1 mg/mL) was 20–75%.

In the case of tannic acid, the inhibition [6] is given as “up to 80%”, the “increase in the activity” value [7] is given as 12% and the “reduction in HXYN2 activity” value (HXYN2 [1]; 1 mg/mL, pre-incubation 0 h) is given as 26%. For the same molecule, the “reduction in HXYN2 activity” value (HXYN2 [1]; 1 mg/mL, pre-incubation 24 h) was 59%, the “deactivating effect on HXYN2” value (HXYN2 [1]; after 24 h of incubation) was ~59% and the inhibitory effect [8] was 17%.

For O=C(O)/C=C/c1ccccc1 [trans-cinnamic acid], the “activating effect on HXYN2 activity” value (HXYN2 [1]; 1 mg/mL) was 20–75%.

For O=C(O)c1cc(O)c(O)c(O)c1 [gallic acid], the “activating effect on HXYN2 activity” value (HXYN2 [1]; 1 mg/mL) was 20–75%.
